Experimental findings from article PMC9804470, “A Formylglycine‐Peptide for the Site‐Directed Identification of Phosphotyrosine‐Mimetic Fragments” (Chemistry (Weinheim an Der Bergstrasse, Germany), 2022) are described below.

*1 amine or outer side, *2 acyl side, *3 side chain or, on linkers, in order; H or OH if unused. Where a SMILES comes first, the peptide text is derived from it. [ ]: non-standard residue; d: D form. The star is where a group is joined. ξ: configuration not given here. F2Pmp = N[C@@H](Cc1ccc(C(F)(F)P(=O)(O)O)cc1)C(=O)O; X3 = O=C1NC(=O)C(CC(N[*:1])C(=O)[*:2])C(=O)N1; X4 = O=S(=O)(Nc1ccc(*)cc1)C(F)(F)F; X2 = O=C(O)COc1ccc(*)cc1; X1 = O=C(O)Cc1ccc(*)cc1; Dap = NC[C@H](N)C(=O)O; ξDap = NCC(N)C(=O)O

The first experiment deals with T1, catalytic domain of human PTP1B (Homo sapiens, UniProt P18031).
T1 construct: catalytic domain of human PTP1B (amino acids 1–321); His7 (N, cleaved yes); made in house; host or cells: E. coli Rosetta (DE3)
T1 sequence (P18031 1-321): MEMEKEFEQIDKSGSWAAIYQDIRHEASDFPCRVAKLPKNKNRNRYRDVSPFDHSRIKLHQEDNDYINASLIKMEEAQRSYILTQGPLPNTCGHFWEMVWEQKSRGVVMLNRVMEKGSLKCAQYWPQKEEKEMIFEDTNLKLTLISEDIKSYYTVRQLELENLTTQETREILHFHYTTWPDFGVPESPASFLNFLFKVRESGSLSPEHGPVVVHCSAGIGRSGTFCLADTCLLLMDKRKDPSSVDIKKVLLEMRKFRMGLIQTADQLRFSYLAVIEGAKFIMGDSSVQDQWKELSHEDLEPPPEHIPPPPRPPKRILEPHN
Put plainly: Enzyme activity assay of PTP1B with fluorogenic substrate DiFMUP. It counts as biochemical. As to conditions: SD. Here is the method: Protein Expression and purification: DNA encoding the catalytic domain of human PTP1B (amino acids 1–321) was subcloned into the pQLinkH vector. The gene encoding the N‐terminal His7‐tagged protein was over‐expressed at 17 °C in E. coli Rosetta (DE3). […] The His7‐tag was cleaved with tobacco etch virus protease at 20 °C prior to the gel‐filtration step. The catalytic domain of human SHP2 (amino acids 225–541) was purified from E. coli B21 (DE3). The overexpressed protein was fused to an N‐terminal His10‐tag. Cells were harvested and resuspended in 25 mM Tris‐HCl (pH=7.5), 50 mM NaCl, 1 % (v/v) Triton X‐100, 10 % (v/v) glycerol, 1 mM DTT. After cell lysis, debris was removed by centrifugation at 12,000 rpm for 30 min. The supernatant was filtered prior to affinity purification with Ni‐NTA agarose (Qiagen). The slurry was washed with 50 mM Tris‐HCl (pH=8.0), 500 mM NaCl supplemented with 25 mM imidazole. Reasonably pure protein was eluted with 200–300 mM imidazole. The purification was completed by size‐exclusion chromatography with a Superdex 75 16/600 column (GE Healthcare) equilibrated with 20 mM HEPES‐NaOH (pH=7.5), 50 mM NaCl, 1 mM DTT.
(§1) Enzyme activity assays of SHP2 and PTP1B: The catalytic activity of SHP2 catalytic domain and PTP1B were monitored using the fluorogenic substrate DiFMUP (6,8‐difluoro‐4‐methylumbelliferyl phosphate). Phosphatase reactions were performed at room temperature in 384‐well black plate, clear flat bottom, low flange, non‐binding surface (Corning, Cat# 3766) using a final volume of 20 μL and the following assay buffer conditions: 50 mM MOPS, pH=6.5, 200 mM NaCl, 50 μM TCEP, 0.03 % Tween‐20 (freshly added prior to each measurement). Test compounds were dissolved in DMSO or buffer at stock concentrations of 50, 20 or 10 mM and serially diluted. Enzyme (5 nM PTP1B or 2.5 nM SHP2 catalytic domain) and different concentrations of the tested compounds were incubated in buffer for 30–60 min at room temperature. Measurements were performed with a final concentration of 2.5 % DMSO unless stated otherwise at 37 °C and were performed in triplicate. Enzymatic reactions were started by adding DiFMUP (Invitrogen, cat# D6567) concentrations matching the experimentally determined KM values of the enzymes of 67 μM (PTP1B) or 72 μM (SHP2). Samples were excited at a wavelength of 360 nm and emitted fluorescence was recorded at 460 for 10 min using a microplate reader (infinite M1000 Pro, Tecan). Initial slope of fluorescence was determined in triplicate and IC50 values were calculated with GraphPad Prism 5. Determined IC50 values were converted into the corresponding KI values applying the Cheng Prusoff equation KI =IC50 /(1+[S]/KM ).
For orientation: Ki means the equilibrium dissociation constant of an inhibitor or competing ligand from its target. The compound `CC(=O)N[C@@H](CC(=O)O)C(=O)N[C@@H](C)C(=O)N[C@@H](CC(=O)O)C(=O)N[C@@H](CCC(=O)O)C(=O)NC(CC1C(=O)NC(=O)NC1=O)C(=O)N[C@@H](CC(C)C)C(N)=O` (stereo partly drawn) [Compound 17] (Ac-DADE[X3]L-NH2) came in with a Ki of 123 ± 16 µM.

The same experiment, now with this note: SD; read-out: KI PTP1B.
Take `CC(=O)N[C@@H](CC(=O)O)C(=O)N[C@@H](C)C(=O)N[C@@H](CC(=O)O)C(=O)N[C@@H](CCC(=O)O)C(=O)NC(CNc1ccc(OCC(=O)O)cc1)C(=O)N[C@@H](CC(C)C)C(N)=O` (stereo partly drawn) [Compound 16] (Ac-DADE[ξDap](X2)L-NH2): the inhibition constant (Ki) is 213 ± 21 µM. Same read-out and setting: the value for `CC(=O)N[C@@H](CC(=O)O)C(=O)N[C@@H](C)C(=O)N[C@@H](CC(=O)O)C(=O)N[C@@H](CCC(=O)O)C(=O)NC(CNc1ccc(CC(=O)O)cc1)C(=O)N[C@@H](CC(C)C)C(N)=O` (stereo partly drawn) [Compound 15] (Ac-DADE[ξDap](X1)L-NH2) was 138 ± 21 µM; that for `CC(=O)N[C@@H](CC(=O)O)C(=O)N[C@@H](C)C(=O)N[C@@H](CC(=O)O)C(=O)N[C@@H](CCC(=O)O)C(=O)N[C@@H](Cc1ccc(C(F)(F)P(=O)(O)O)cc1)C(=O)N[C@@H](CC(C)C)C(N)=O` [Compound 2, Ac-DADE-(PDFM-F)-L-NH2, reference compound] (Ac-DADE[F2Pmp]L-NH2) was 1.4 ± 0.4 µM; that for `CC(=O)N[C@@H](CC(=O)O)C(=O)N[C@@H](C)C(=O)N[C@@H](CC(=O)O)C(=O)N[C@@H](CCC(=O)O)C(=O)N[C@@H](CNc1ccc(NS(=O)(=O)C(F)(F)F)cc1)C(=O)N[C@@H](CC(C)C)C(N)=O` [Compound 18] (Ac-DADE[Dap](X4)L-NH2) was 202 ± 21 µM.

In a further experiment the target is T2, PTP1B (Homo sapiens, UniProt P18031).
T2 construct: catalytic domain of human PTP1B (amino acids 1–321); His7 (N, cleaved yes); made in house; host or cells: E. coli Rosetta (DE3)
T2 sequence (P18031 1-321): T1 sequence (P18031 1-321)
Put plainly: Dynamic ligation screening of nucleophilic fragments with formylglycine peptide 3, PTP1B. It counts as biochemical. As to conditions: 3 100 μM pre-incubated 5 min, fragment 200 μM, 30 min RT before DiFMUP, triplicates. As to the method: as §1
Dynamic ligation screening of nucleophilic fragments with 3: Under assay conditions described above, PTP1B or SHP2 were pre‐incubated with 3 (100 μM) for 5 min. Subsequently, (200 μM) of the respective fragments were added and the resulting mixtures were incubated for 30 min at RT, prior to DiFMUP addition.
Turning to `O=P(O)(O)C(F)(F)C1CCNCC1` [Compound F9, 4‐piperidinyl‐difluoromethyl phosphonate], the “Enhancement of inhibition of PTP1B by fragment in combination with peptide 3 (fragment ligation assay)” value is “inactive”. Still for that read-out and setting: the value for `Nc1ccc(C(F)(F)F)cc1` [Compound F8, 4‐amino‐phenyl‐trifluoromethane] was “inactive”; that for `Nc1ccc(C(=O)O)cc1` [Compound F5, 4‐amino benzoic acid] was “inactive”; that for “N‐(4‐aminophenyl)‐sulfonic acid [Compound F6]” was “inactive”. On the same count and under the same terms, the value for `Nc1ccccc1` [aniline, reference compound] was “entirely inactive”.
